Species: Rattus norvegicus
Assay: Open TG-GATES - Regimen: Single
Assay type: toxicity, organism-based, Sprague-Dawley
Design: regimen Single, gender Male, age 6 weeks
Conditions: in vivo, po, 5 mg/kg, route gavage, dose level Middle; for Bas / Eos / Fbg / Hb / Ht / Lym / MCHC / MCV / Mono / Neu / Plat / RBC / Ret / WBC: tissue Blood; for KIDNEY_TOTAL: tissue Kidney; for LIVER: tissue Liver; for ALT / AST / BUN / CRE / Ca / Cl / DBIL / GLC / IP / K / LDH / Na / PL / RALB / TBIL / TC / TP / gamma-GTP: tissue Plasma

C[C@@H]1C[C@H]2[C@@H]3CCC4=CC(=O)C=C[C@]4(C)[C@@]3(F)[C@@H](O)C[C@]2(C)[C@@]1(O)C(=O)CO [DEXAMETHASONE]
TERMINAL_BW (3 h): 210 g
Bas (3 h): 0%
Eos (3 h): 0.6%
Fbg (3 h): 235.2 mg/dL
Hb (3 h): 13.2 g/dL
Ht (3 h): 40.3%
Lym (3 h): 71.4%
MCHC (3 h): 32.8%
MCV (3 h): 65 fL
Mono (3 h): 2.4%
Neu (3 h): 25.6%
Plat (3 h): 121.2 x10_4/uL
RBC (3 h): 620.6 x10_4/ul
Ret (3 h): 9.6%
WBC (3 h): 46.5 x10_2/uL
KIDNEY_TOTAL (3 h): 0.6 g
LIVER (3 h): 10.6 g
ALT (3 h): 41 IU/L
AST (3 h): 77.8 IU/L
BUN (3 h): 15 mg/dL
CRE (3 h): 0.4 mg/dL
Ca (3 h): 11.4 mg/dL
Cl (3 h): 101.8 meq/L
DBIL (3 h): 0.014 mg/dL
GLC (3 h): 193.4 mg/dL
IP (3 h): 11.9 mg/dL
K (3 h): 4.1 meq/L
LDH (3 h): 103.8 IU/L
Na (3 h): 141.2 meq/L
PL (3 h): 157.4 mg/dL
RALB (3 h): 4.2 g/dL
TBIL (3 h): 0.046 mg/dL
TC (3 h): 91.2 mg/dL
TP (3 h): 6 g/dL
gamma-GTP (3 h): 0.4 IU/L
TERMINAL_BW (6 h): 205.5 g
Bas (6 h): 0%
Eos (6 h): 0.6%
Fbg (6 h): 243.6 mg/dL
Hb (6 h): 12.9 g/dL
Ht (6 h): 39.2%
Lym (6 h): 59.4%
MCHC (6 h): 32.8%
MCV (6 h): 64.4 fL
Mono (6 h): 3.6%
Neu (6 h): 36.6%
Plat (6 h): 129.5 x10_4/uL
RBC (6 h): 609.4 x10_4/ul
Ret (6 h): 6.7%
WBC (6 h): 27.3 x10_2/uL
KIDNEY_TOTAL (6 h): 0.6 g
LIVER (6 h): 11.2 g
ALT (6 h): 39.8 IU/L
AST (6 h): 82.6 IU/L
BUN (6 h): 17.2 mg/dL
CRE (6 h): 0.4 mg/dL
Ca (6 h): 11.6 mg/dL
Cl (6 h): 103.2 meq/L
DBIL (6 h): 0.01 mg/dL
GLC (6 h): 223.8 mg/dL
IP (6 h): 7.7 mg/dL
K (6 h): 4.1 meq/L
LDH (6 h): 84.4 IU/L
Na (6 h): 138.8 meq/L
PL (6 h): 153.6 mg/dL
RALB (6 h): 4.5 g/dL
TBIL (6 h): 0.036 mg/dL
TC (6 h): 101.4 mg/dL
TP (6 h): 6.3 g/dL
gamma-GTP (6 h): 0 IU/L
TERMINAL_BW (9 h): 199.5 g
Bas (9 h): 0%
Eos (9 h): 0.2%
Fbg (9 h): 246 mg/dL
Hb (9 h): 13.6 g/dL
Ht (9 h): 41.5%
Lym (9 h): 37%
MCHC (9 h): 32.7%
MCV (9 h): 64.4 fL
Mono (9 h): 1.4%
Neu (9 h): 61.2%
Plat (9 h): 122.1 x10_4/uL
RBC (9 h): 645.2 x10_4/ul
Ret (9 h): 6%
WBC (9 h): 18.2 x10_2/uL
KIDNEY_TOTAL (9 h): 0.4 g
LIVER (9 h): 10.8 g
ALT (9 h): 39.4 IU/L
AST (9 h): 76.8 IU/L
BUN (9 h): 19.4 mg/dL
CRE (9 h): 0.4 mg/dL
Ca (9 h): 10.9 mg/dL
Cl (9 h): 102 meq/L
DBIL (9 h): 0.008 mg/dL
GLC (9 h): 226 mg/dL
IP (9 h): 7.2 mg/dL
K (9 h): 3.9 meq/L
LDH (9 h): 104.4 IU/L
Na (9 h): 138.6 meq/L
PL (9 h): 179.4 mg/dL
RALB (9 h): 4.6 g/dL
TBIL (9 h): 0.032 mg/dL
TC (9 h): 118 mg/dL
TP (9 h): 6.7 g/dL
gamma-GTP (9 h): 0.8 IU/L
TERMINAL_BW (24 h): 208.2 g
Bas (24 h): 0%
Eos (24 h): 1%
Fbg (24 h): 232.4 mg/dL
Hb (24 h): 13.4 g/dL
Ht (24 h): 40.4%
Lym (24 h): 46.8%
MCHC (24 h): 33.1%
MCV (24 h): 63.3 fL
Mono (24 h): 9.2%
Neu (24 h): 43.2%
Plat (24 h): 136.7 x10_4/uL
RBC (24 h): 638.4 x10_4/ul
Ret (24 h): 5.4%
WBC (24 h): 47.5 x10_2/uL
KIDNEY_TOTAL (24 h): 0.4 g
LIVER (24 h): 13.2 g
ALT (24 h): 37.2 IU/L
AST (24 h): 83.4 IU/L
BUN (24 h): 17.6 mg/dL
CRE (24 h): 0.4 mg/dL
Ca (24 h): 11.4 mg/dL
Cl (24 h): 99.4 meq/L
DBIL (24 h): 0.022 mg/dL
GLC (24 h): 205 mg/dL
IP (24 h): 6.8 mg/dL
K (24 h): 5.1 meq/L
LDH (24 h): 96 IU/L
Na (24 h): 137.8 meq/L
PL (24 h): 249.2 mg/dL
RALB (24 h): 4.8 g/dL
TBIL (24 h): 0.044 mg/dL
TC (24 h): 119.2 mg/dL
TP (24 h): 6.8 g/dL
